Target: T1, Nav 1.7 (Homo sapiens, UniProt Q15858)
T1 construct: expressed in transfected cells
Experiment: Whole-cell voltage clamp electrophysiology, automated patch clamp (marker c in Table of Examples)
Type: cell-based
Details: marker c = Automated patch clamp data; read-out: Nav 1.7 activity
How it was run: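 Human NaV1.7 currents were recorded by whole-cell automated patch clamp, on IonWorks Quattro or another automated platform, typically in perforated-patch configuration. The stimulus protocol was designed to probe block mainly of the inactivated state, with a typical sweep stepping from about −65 mV holding to −10 mV, then −100 mV.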

T1 sequence (Q15858 whole entry): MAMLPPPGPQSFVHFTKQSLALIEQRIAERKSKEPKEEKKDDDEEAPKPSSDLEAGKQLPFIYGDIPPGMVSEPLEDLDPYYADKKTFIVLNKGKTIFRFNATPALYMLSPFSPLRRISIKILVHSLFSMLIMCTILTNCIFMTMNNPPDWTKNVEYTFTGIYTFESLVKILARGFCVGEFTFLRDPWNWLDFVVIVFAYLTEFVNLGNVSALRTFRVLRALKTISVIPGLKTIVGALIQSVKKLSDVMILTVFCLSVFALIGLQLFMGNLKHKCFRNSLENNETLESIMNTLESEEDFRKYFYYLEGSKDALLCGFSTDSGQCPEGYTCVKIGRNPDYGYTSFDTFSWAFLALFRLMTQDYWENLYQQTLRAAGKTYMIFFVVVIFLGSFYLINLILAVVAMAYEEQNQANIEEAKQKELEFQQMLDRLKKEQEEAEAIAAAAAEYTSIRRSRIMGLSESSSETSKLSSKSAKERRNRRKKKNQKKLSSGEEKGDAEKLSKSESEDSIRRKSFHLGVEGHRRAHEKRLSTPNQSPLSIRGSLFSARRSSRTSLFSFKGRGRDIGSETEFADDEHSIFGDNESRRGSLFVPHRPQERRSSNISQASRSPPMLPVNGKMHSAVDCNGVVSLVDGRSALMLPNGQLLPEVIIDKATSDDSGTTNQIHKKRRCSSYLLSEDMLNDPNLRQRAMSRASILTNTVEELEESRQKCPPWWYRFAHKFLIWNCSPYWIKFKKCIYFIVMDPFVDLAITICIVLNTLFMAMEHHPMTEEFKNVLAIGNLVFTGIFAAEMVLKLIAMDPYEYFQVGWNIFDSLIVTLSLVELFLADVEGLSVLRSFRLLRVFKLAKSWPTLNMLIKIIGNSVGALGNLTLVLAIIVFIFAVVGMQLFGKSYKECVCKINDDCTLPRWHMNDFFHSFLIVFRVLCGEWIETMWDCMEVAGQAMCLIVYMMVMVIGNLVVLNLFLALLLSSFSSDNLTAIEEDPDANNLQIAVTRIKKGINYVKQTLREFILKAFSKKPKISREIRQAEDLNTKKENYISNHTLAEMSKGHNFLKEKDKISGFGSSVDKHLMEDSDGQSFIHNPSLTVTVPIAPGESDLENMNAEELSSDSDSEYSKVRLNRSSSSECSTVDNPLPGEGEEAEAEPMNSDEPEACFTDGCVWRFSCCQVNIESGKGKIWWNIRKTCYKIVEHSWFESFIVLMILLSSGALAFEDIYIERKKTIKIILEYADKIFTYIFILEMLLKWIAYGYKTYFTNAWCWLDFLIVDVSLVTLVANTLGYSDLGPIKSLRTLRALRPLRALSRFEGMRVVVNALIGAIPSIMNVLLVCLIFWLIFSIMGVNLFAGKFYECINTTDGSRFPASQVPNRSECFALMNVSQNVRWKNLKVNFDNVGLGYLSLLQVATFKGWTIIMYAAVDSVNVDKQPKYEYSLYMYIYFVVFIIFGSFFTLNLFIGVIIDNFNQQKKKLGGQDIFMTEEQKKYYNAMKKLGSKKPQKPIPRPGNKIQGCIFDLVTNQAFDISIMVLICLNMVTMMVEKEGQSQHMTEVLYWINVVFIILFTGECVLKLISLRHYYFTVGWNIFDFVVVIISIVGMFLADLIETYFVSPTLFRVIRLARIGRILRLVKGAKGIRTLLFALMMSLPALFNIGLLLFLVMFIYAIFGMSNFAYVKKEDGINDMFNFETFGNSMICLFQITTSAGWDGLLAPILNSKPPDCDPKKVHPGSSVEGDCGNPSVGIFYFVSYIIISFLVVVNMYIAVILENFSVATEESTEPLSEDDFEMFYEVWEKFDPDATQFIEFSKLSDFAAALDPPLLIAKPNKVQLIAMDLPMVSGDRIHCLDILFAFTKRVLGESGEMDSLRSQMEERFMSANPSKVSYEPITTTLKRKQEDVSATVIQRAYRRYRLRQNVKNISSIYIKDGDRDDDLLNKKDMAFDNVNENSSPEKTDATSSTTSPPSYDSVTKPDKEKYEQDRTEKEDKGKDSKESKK

| SMILES | IC50 [nM] |
| --- | --- |
| CN(c1ccccc1)c1nc(N)nc(-c2noc(-c3ccc(CO)nc3)n2)n1 [Example 295, [5-(3-{4-Amino-6-[methyl(phenyl)amino]-1,3,5-triazin-2-yl}-1,2,4-oxadiazol-5-yl)pyridin-2-yl]methanol] | 5190 |
| CC(=O)c1ccc(-c2nc(-c3nc(N)nc(N(C)c4ccccc4)n3)no2)nc1 [Example 296, 1-[6-(3-{4-amino-6-[methyl(phenyl)amino]-1,3,5-triazin-2-yl}-1,2,4-oxadiazol-5-yl)pyridin-3-yl]ethan-1-one] | 274 |
| COC(=O)c1ccc(-c2nc(-c3nc(N)nc(Nc4ccccc4)n3)no2)cn1 [Example 297] | 210 |
| CN(c1ccccc1)c1nc(N)nc(-c2noc(-c3ccc(CN4CCOCC4)nc3)n2)n1 [Example 299, 2-N-methyl-6-{5-[6-(morpholin-4-ylmethyl)pyridin-3-yl]-1,2,4-oxadiazol-3-yl}-2-N-phenyl-1,3,5-triazine-2,4-diamine] | 1110 |
| CN(c1ccccc1)c1nc(N)nc(-c2noc(-c3ccc(CNC4CCC4)nc3)n2)n1 [Example 300, 6-(5-{6-[(cyclobutylamino)methyl]pyridin-3-yl}-1,2,4-oxadiazol-3-yl)-2-N-methyl-2-N-phenyl-1,3,5-triazine-2,4-diamine] | 619 |
| CN(c1ccccc1)c1nc(N)nc(-c2noc(-c3cccnc3COCC(F)(F)F)n2)n1 [Example 301, 2-N-methyl-2-N-phenyl-6-(5-{2-[(2,2,2-trifluoroethoxy)methyl]pyridin-3-yl}-1,2,4-oxadiazol-3-yl)-1,3,5-triazine-2,4-diamine] | 338 |
| CN(c1ccccc1)c1nc(N)nc(-c2noc(-c3ncccc3COCC(F)(F)F)n2)n1 [Example 302, 2-N-methyl-2-N-phenyl-6-(5-{3-[(2,2,2-trifluoroethoxy)methyl]pyridin-2-yl}-1,2,4-oxadiazol-3-yl)-1,3,5-triazine-2,4-diamine] | 406 |
| CC(=O)c1ccc(-c2nc(-c3nc(N)nc(N(C)c4ccccc4)n3)no2)cn1 [Example 304, 1-[5-(3-{4-Amino-6-[methyl(phenyl)amino]-1,3,5-triazin-2-yl}-1,2,4-oxadiazol-5-yl)pyridin-2-yl]ethan-1-one] | 746 |
| C=Cc1ccc(-c2nc(-c3nc(N)nc(N(C)c4ccccc4)n3)no2)cc1 [Example 305, 6-[5-(4-ethenylphenyl)-1,2,4-oxadiazol-3-yl]-2-N-methyl-2-N-phenyl-1,3,5-triazine-2,4-diamine] | 804 |
| CN(c1ccccc1)c1nc(N)nc(-c2noc(-c3ccc4c(c3)COC4)n2)n1 [Example 306, 6-(5-(1,3-dihydro-2-benzofuran-5-yl)-1,2,4-oxadiazol-3-yl]-2-N-methyl-2-N-phenyl-1,3,5-triazine-2,4-diamine] | 2670 |
| CCCS(=O)(=O)N1CC(c2nc(-c3nc(N)nc(N(C)c4ccccc4)n3)no2)C1 [Example 307, 2-N-methyl-2-N-phenyl-6-{5-[1-(propane-1-sulfonyl)azetidin-3-yl]-1,2,4-oxadiazol-3-yl}-1,3,5-triazine-2,4-diamine] | 8050 |
| CC(C)S(=O)(=O)N1CC(c2nc(-c3nc(N)nc(N(C)c4ccccc4)n3)no2)C1 [Example 308, 2-N-methyl-2-N-phenyl-6-{5-[1-(propane-2-sulfonyl)azetidin-3-yl]-1,2,4-oxadiazol-3-yl}-1,3,5-triazine-2,4-diamine] | 8770 |
| CCS(=O)(=O)N1CC(c2nc(-c3nc(N)nc(N(C)c4ccccc4)n3)no2)C1 [Example 309, 6-{5-[1-(ethanesulfonyl)azetidin-3-yl]-1,2,4-oxadiazol-3-yl}-2-N-methyl-2-N-phenyl-1,3,5-triazine-2,4-diamine] | 1730 |
| CN(c1ccccc1)c1nc(N)nc(-c2noc(C3CN(S(=O)(=O)CC(F)(F)F)C3)n2)n1 [Example 310, 2-N-methyl-2-N-phenyl-6-(5-{1-[(2,2,2-trifluoroethane)sulfonyl]azetidin-3-yl}-1,2,4-oxadiazol-3-yl)-1,3,5-triazine-2,4-diamine] | 968 |
| COCCN(c1ccccc1)c1nc(N)nc(-c2noc(-c3ccc(C(=O)OC)nc3)n2)n1 [Example 311, methyl 5-(3-{4-amino-6-[(2-methoxyethyl)(phenyl)amino]-1,3,5-triazin-2-yl}-1,2,4-oxadiazol-5-yl)pyridine-2-carboxylate] | 451 |
| COCCN(c1ccccc1)c1nc(N)nc(-c2noc(-c3ccc(COCC(F)(F)F)nc3)n2)n1 [Example 312, 2-N-(2-Methoxyethyl)-2-N-phenyl-6-(5-{6-[(2,2,2-trifluoroethoxy)methyl]pyridin-3-yl}-1,2,4-oxadiazol-3-yl)-1,3,5-triazine-2,4-diamine] | 139 |
| CN(c1ccccc1)c1nc(N)nc(-c2noc(C3CN(S(=O)(=O)c4ccccc4)C3)n2)n1 [Example 313, 6-{5-[1-(benzenesulfonyl)azetidin-3-yl]-1,2,4-oxadiazol-3-yl}-2-N-methyl-2-N-phenyl-1,3,5-triazine-2,4-diamine] | 4860 |

| SMILES | IC50 [nM] |
| --- | --- |
| CN(c1ccccc1)c1nc(N)nc(-c2noc(C3CN(CC(F)(F)F)C3)n2)n1 [Example 314, 2-N-Methyl-2-N-phenyl-6-{5-[1-(2,2,2-trifluoroethyl)azetidin-3-yl]-1,2,4-oxadiazol-3-yl}-1,3,5-triazine-2,4-diamine] | 3070 |
| CN(c1ccccc1)c1nc(N)nc(-c2noc(-c3ccc(CCC(F)(F)F)nc3)n2)n1 [Example 315, 2-N-methyl-2-N-phenyl-6-{5-[6-(3,3,3-trifluoropropyl)pyridin-3-yl]-1,2,4-oxadiazol-3-yl}-1,3,5-triazine-2,4-diamine] | 170 |
| CN(c1ccccc1)c1nc(N)nc(-c2noc(-c3ccc(CSCC(F)(F)F)nc3)n2)n1 [Example 316, 2-N-methyl-2-N-phenyl-6-[5-(6-{[(2,2,2-trifluoroethyl)sulfanyl]methyl}pyridin-3-yl)-1,2,4-oxadiazol-3-yl]-1,3,5-triazine-2,4-diamine] | 13 |
| CN(c1ccccc1)c1nc(N)nc(-c2noc(-c3ccc(C[S+]([O-])CC(F)(F)F)nc3)n2)n1 (stereo not drawn) [Example 317, 2-N-Methyl-2-N-phenyl-6-[5-(6-{[(2,2,2-trifluoroethane)sulfinyl]methyl}pyridin-3-yl)-1,2,4-oxadiazol-3-yl]-1,3,5-triazine-2,4-diamine] | 2770 |
| CN(c1ccccc1)c1nc(N)nc(-c2noc(-c3ccc(SCC(F)(F)F)nc3)n2)n1 [Example 318, 2-N-methyl-2-N-phenyl-6-(5-{6-[(2,2,2-trifluoroethyl)sulfanyl]pyridin-3-yl}-1,2,4-oxadiazol-3-yl)-1,3,5-triazine-2,4-diamine] | 1890 |
| Nc1nc(Nc2ccccc2)nc(-c2noc(-c3ccc(CCC(F)(F)F)nc3)n2)n1 [Example 319, 2-N-phenyl-6-{5-[6-(3,3,3-trifluoropropyl)pyridin-3-yl]-1,2,4-oxadiazol-3-yl}-1,3,5-triazine-2,4-diamine] | 150 |
| CN(c1ccccc1)c1nc(N)nc(-c2noc(-c3ccc(CS(=O)(=O)CC(F)(F)F)nc3)n2)n1 [Example 321, 2-N-methyl-2-N-phenyl-6-[5-(6-{[(2,2,2-trifluoroethane)sulfonyl]methyl}pyridin-3-yl)-1,2,4-oxadiazol-3-yl]-1,3,5-triazine-2,4-diamine] | 149 |
| CN(c1ccccc1)c1nc(N)nc(-c2noc(C(=O)N3CCC(=CCC(F)(F)F)CC3)n2)n1 [Example 322, 2-N-methyl-2-N-phenyl-6-(5-{[4-(3,3,3-trifluoropropylidene)piperidin-1-yl]carbonyl}-1,2,4-oxadiazol-3-yl)-1,3,5-triazine-2,4-diamine] | 3270 |
| CN(c1ccccc1)c1nc(N)nc(-c2noc(N3Cc4cncnc4C3)n2)n1 [Example 323, 2-N-Methyl-2-N-phenyl-6-(5-{5H,6H,7H-pyrrolo[3,4-d]pyrimidin-6-yl}-1,2,4-oxadiazol-3-yl)-1,3,5-triazine-2,4-diamine] | 6450 |
| CN(c1ccccc1)c1nc(N)nc(-c2noc(N3CCC(=CCC(F)(F)F)CC3)n2)n1 [Example 324, 2-N-Methyl-2-N-phenyl-6-{5-[4-(3,3,3-trifluoropropylidene)piperidin-1-yl]-1,2,4-oxadiazol-3-yl}-1,3,5-triazine-2,4-diamine] | 2360 |
| Nc1nc(Nc2cc(Cl)ccc2F)nc(-c2noc(-c3ccccn3)n2)n1 [Example 325, 2-N-(5-chloro-2-fluorophenyl)-6-[5-(pyridin-2-yl)-1,2,4-oxadiazol-3-yl]-1,3,5-triazine-2,4-diamine] | 435 |
| CN(c1ccccc1)c1nc(N)nc(-c2noc(-c3ccc(NCC(F)(F)F)nc3)n2)n1 [Example 327, 2-N-Methyl-2-N-phenyl-6-(5-{6-[(2,2,2-trifluoroethyl)amino]pyridin-3-yl}-1,2,4-oxadiazol-3-yl)-1,3,5-triazine-2,4-diamine] | 1860 |
| CN(c1ccccc1)c1nc(N)nc(-c2noc(-c3ccc(NC4CCOC4)nc3)n2)n1 (stereo not drawn) [Example 328, 2-N-methyl-6-(5-{6-[(oxolan-3-yl)amino]pyridin-3-yl}-1,2,4-oxadiazol-3-yl)-2-N-phenyl-1,3,5-triazine-2,4-diamine] | 7960 |
| COCCOc1ccc(-c2nc(-c3nc(N)nc(N(C)c4ccccc4)n3)no2)cn1 [Example 329, 6-{5-[6-(2-methoxyethoxy)pyridin-3-yl]-1,2,4-oxadiazol-3-yl}-2-N-methyl-2-N-phenyl-1,3,5-triazine-2,4-diamine] | 894 |
| CN(c1ccccc1)c1nc(N)nc(-c2noc(-c3ccc(OCC#N)nc3)n2)n1 [Example 330, 2-{[5-(3-{4-Amino-6-[methyl(phenyl)amino]-1,3,5-triazin-2-yl}-1,2,4-oxadiazol-5-yl)pyridin-2-yl]oxy}acetonitrile] | 9210 |
| CN(c1ccccc1)c1nc(N)nc(-c2noc(-c3ccc(OC4CCC4)nc3)n2)n1 [Example 331, 6-[5-(6-cyclobutoxypyridin-3-yl)-1,2,4-oxadiazol-3-yl]-2-N-methyl-2-N-phenyl-1,3,5-triazine-2,4-diamine] | 140 |

Source: patent US8895733B2 (Novartis AG, priority 2010, dated 2014)
